Assay results: US11344625B2, “Compositions having antifungal activity” (WAKO FILTER TECHNOLOGY Co., LTD., priority 2015, dated 2022)
≈ marks a conversion by molar mass, not a printed value. Like-named read-outs stand apart in the source and are kept apart here.

Tests used:
[1] = system: Candida albicans TIMM 1768; test: Inhibition test for Candida mycelial growth (crystal violet, checkerboard for combinations); format: cell-based; conditions: for IC (at a 70% growth inhibitory concentration): checkerboard; for IC 70 (70% growth inhibitory concentration): alone, Candida mycelial growth; for improvement effect in the anticandidal activity against Candida mycelial growth: test reagent alone, concentration series
Protocol: A clinical isolate, Candida albicans TIMM 1768, held by the Teikyo University Medical Mycology Research Center was used as the Candida. This Candida was cultured for 20 hours at 37° C. on a Sabouraud Dextrose Agar culture plate. The multiplied bacterial cells were recovered, and then suspended in sterilized water so as to form Candida solutions whose bacterial count was adjusted to 5×10^3 cells/ml. Each sample was dissolved in advance in DMSO (dimethyl sulfoxide) so as to match the final concentration, and was then added to a 1/3 RPMI-1640 culture medium containing 2% calf serum so as to form sample solutions. 100 μL of both the sample solution (having a DSMO concentration in the culture medium of 0.5%) and the Candida bacterial solution were then placed respectively in each well of a 96-hole microplate (manufactured by Sumitomo Bakelite, Tokyo), and these were then cultured for three hours at 37° C. in a 5% carbon dioxide gas atmosphere. After three hours, the solutions in each well were discarded and the wells were cleaned. Subsequently, 200 μL of 1/3 RPMI-1640 was newly added to each well, and culturing was performed for 16 hours at 37° C. in a presence of 5% carbon dioxide gas. Once this culturing had ended, the solutions in each well were removed by suction, and the wells were washed using physiological saline. 200 μL of 70% ethanol was then injected so as to sterilize the Candida. After the ethanol had been removed, and the wells washed with tap water, 100 μL of a dye solution (i.e., a 0.1 M phosphate buffer containing 0.01% of dissolved crystal violet solution) was injected and left standing for 15 minutes. As a result, the Candida mycelia adhering to the surface of the wells were dyed.
After the wells were then washed with tap water so as to remove excess dye solution, 150 μL of […] containing 0.04 NHCL, and 50 μL of a 0.25% sodium dodecyl sulfate solution were then injected so as to free the coloring adhering to the bacterial cells. After the coloring had been freed, the plate was set in a multiscan photometer (i.e., a Multiskan FC, manufactured by Thermo Fisher Scientific Inc.), and the OD at 620 nm was measured in each well. The growth inhibition rate was then determined using the following formula. Growth inhibition rate (%)=(1−sample OD/subject OD)×100
The anticandidal activity synergistic effect provided by the combined use was evaluated using a checkerboard method. […] The experiment conditions and the measurement method and the like were the same as those employed for the mycelial growth test (i.e., Example 1).
The anticandidal activity synergistic effect obtained from a combined use was evaluated using a checkerboard method in the same way as in Example 2. […] The experiment conditions and the measurement method and the like were the same as those employed for the mycelial growth test (i.e., Example 1).
The anticandidal activity effect obtained from each test reagent was evaluated using a checkerboard method in the same way as in Example 2. […] The experiment conditions and the measurement method and the like were the same as those employed for the mycelial growth test (i.e., Example 1).

[2] = system: Malassezia pachydermatis; test: Anti-Malassezia fungal activity, agar dilution method; format: cell-based; conditions: for Determination (mycelial growth rate taking control as 100): 7 days at 32° C.
Protocol: 100 μL lots of the test bacterial solution adjusted to McFarland 1.0 were coated over this Agar plate and were cultured for seven days at 32° C. Thereafter, the growth rate of the bacteria thereon were compared with a control (i.e., an MLNA culture medium containing no test additives) and their properties were determined. […] Note that if the mycelial growth rate of the control is taken as 100%, then when the mycelial growth rate in the test sample is 0%, this is determined to be [−], while if the mycelial growth rate in the test sample is 1 to 20%, this is determined to be [+], and if the mycelial growth rate in the test sample is 21 to 90%, this is determined to be […].

[3] = system: Trichophyton mentagrophytes TIMM 2789; test: In vitro inhibition test for Trichophyton (pour-plate, agar); format: cell-based; conditions: cultured at 28° C.
Protocol: A clinical isolate, Trichophyton mentagrophytes TIMM 2789, held by the Teikyo University Medical Mycology Research Center was used as the Trichophyton. For the preculture process, this Trichophyton was extracted from low-temperature silica stock one week prior to the day of the test, and was cultured on a Sabouraud Dextrose Agar culture plate containing 50 μg/ml of chloramphenicol and 500 μg/ml of cycloheximide (such that these components were diluted to 1/10). This culturing was performed for one week at 28° C., and the bacteria were collected and used on the day of the test. The setting of the Trichophyton bacterial count was achieved by transferring the collected bacteria using a pour-plate method to a culture medium such that the final concentration was 10^3 cells/ml. In addition, the respective test samples were also transferred to a culture medium using a pour-plate method such that the final concentrations thereof were set to those shown in the table below. […] In the preparation, 1 ml of each test sample solution and 24 ml of RPMI-1640 culture medium were blended together, and prepared in a sterilized plastic Petri dish. The Trichophyton inoculation culture medium that was prepared in this manner was then cultured at 28° C. for four days, and the growth inhibitory effect of the mycelia after this culturing was observed and the properties thereof determined. The determinations were made both visually, and in the case of turbidity being present, by comparing the growth condition of the mycelia with a control (containing no test sample additives) via photomicrograph (at magnification ×40).
Results for the negativity and positivity of the bacteria obtained from each test sample are shown below in Table 6. Note that if the mycelial growth rate of the control is taken as 100%, then when the mycelial growth rate in the test sample is 0%, this is determined to be [−], while if the mycelial growth rate in the test sample is 1 to 20%, this is determined to be [+], and if the mycelial growth rate in the test sample is 21 to 90%, this is determined to be […]. Note that FIG. 15 and FIG. 16 are photographs showing states 7 days after colony formation of the Trichophyton in each test sample.

[4] = system: Trichophyton mentagrophytes TIMM 2789; test: as above; format: cell-based; conditions: for MIC: Trichophyton mentagrophytes, read-out: MIC (minimum inhibitory concentration)
[5] = system: Candida albicans TIMM 1768; test: Oral candidiasis model in mice; format: in vivo, ICR strain mice; conditions: day 2
Protocol: Using ICR strain mice (males, 6 weeks old, Charles River Laboratories, Japan) as the experimental animals, these mice were subcutaneously injected with 100 mg/kg of prednisolone as an immunosuppressant on the day prior to the candidiasis inoculation. Additionally, tap water containing 15 mg/ml of chlortetracycline hydrochloride was made freely available starting from that same day. On the day of the innoculation, in order to keep the mice in a resting state, 14.4 mg/kg of chlorpromazine hydrochloride (manufactured by Wako Pure Chemical Industries, Ltd.) was intramuscularly administered in advance. The bacterial strain and culturing method that were used were the same as in the Examples as far as the previous paragraph, and the multiplied bacterial cells were suspended in an RPMI-1640 culture medium containing 2% calf serum so as to form a bacterial solution whose bacterial count was adjusted to 2×10^8 cells/ml. […] Two days after the inoculation the mouse was euthanized, and the tongue symptom score was evaluated in accordance with a reference. […] A fixed quantity of this was then coated onto a Candida GS agar plate, and was cultured at 37° C. for 20 hours. The number of colonies appearing after this time was then measured. The number of viable Candida bacteria CFU (colony forming units) recovered from the relevant individuals was then calculated from the number of colonies.

[6] = LYZOX used in combination with terpinen-4-ol
[7] = used in combination with decanoic acid
[8] = used in combination with terpinen-4-ol

Row | Molecule | IC 70 (70% growth inhibitory concentration) [1] | Determination (mycelial growth rate taking control as 100) ([2]; 0.1 mg/ml) | Determination (mycelial growth rate taking control as 100) ([2]; 1 mg/ml) | Determination (mycelial growth rate taking control as 100) ([3]; 1 mg/ml) | IC (at a 70% growth inhibitory concentration) [1, 6] | improvement effect in the anticandidal activity against Candida mycelial growth [1] | improvement effect in the anticandidal activity from combined usage against Candida mycelial growth [1, 7] | improvement effect in the anticandidal activity from combined usage against Candida mycelial growth [1, 8] | Determination (mycelial growth rate taking control as 100) ([2]; 0.05 mg/ml) | Determination (mycelial growth rate taking control as 100) ([2]; 0.5 mg/ml) | Determination (mycelial growth rate taking control as 100) ([3]; 2.5 mg/ml) | Determination (mycelial growth rate taking control as 100) ([3]; 5 mg/ml) | further results
1 | CCCCCCCCCC(=O)O [Decanoic acid, decanoic acid] | 480 µg/mL | +++ (91 to 100%) | +++ (91 to 100%) | ++ (21 to 90%) | – | – | – | – | – | – | – | – | IC (at a 70% growth inhibitory concentration) ([1]; LYZOX used in combination with capric acid (decanoic acid)): 25 µg/mL; Determination (mycelial growth rate taking control as 100) ([2]; 0.2 mg/ml): +++ (91 to 100%); Determination (mycelial growth rate taking control as 100) ([2]; 2 mg/ml): + (1 to 20%); Determination (mycelial growth rate taking control as 100) ([3]; 0.8 mg/ml): +++ (91 to 100%); Determination (mycelial growth rate taking control as 100) ([3]; 0.9 mg/ml): +++ (91 to 100%); Determination (mycelial growth rate taking control as 100) ([3]; 1.5 mg/ml): − (0%); MIC ([4]; TIMM2789, LYZOX and decanoic acid used in combination): 200 µg/mL; MIC ([4]; TIMM2789, used alone): 1500 µg/mL (≈ 8.71 mM)
2 | CC1=CCC(O)(C(C)C)CC1 (stereo not shown) [Terpinen-4-ol, terpinen-4-ol] | 1900 µg/mL | – | – | – | 280 µg/mL | – | – | – | – | – | – | – | viable bacteria count recovered from the oral cavity ([5]; T 10 mg/ml on tongue dorsum 3, 24, 27 h after inoculation): reduction in the viable bacterial count
3 | LYZOX: complex formed by bonding lysozyme to chitosan (14000 Da) via a Maillard reaction; LYZOX is a registered trademark | 193 µg/mL | ++ (21 to 90%) | − (0%) | +++ (91 to 100%) | 60 µg/mL | improvement effect in the anticandidal activity against Candida mycelial growth was visible | remarkable improvement effect | remarkable improvement effect | +++ (91 to 100%) | − (0%) | ++ (21 to 90%) | ++ (21 to 90%) | Candida growth rate ([1]; 250 μg/ml): 0.9%; tongue symptom score ([5]; L 20 mg/ml on tongue dorsum 3, 24, 27 h after inoculation): remarkable improvement effect; anti-Malassezia fungal activity against Malassezia fungi ([2]; summary of agar dilution and disk experiments): exhibited anti-Malassezia fungal activity; Determination (mycelial growth rate taking control as 100) ([3]; 10 mg/ml): − (0%); MIC (minimum inhibitory concentration) ([4]; LYZOX and decanoic acid used in combination): 100 µg/mL; MIC (minimum inhibitory concentration) ([4]; used alone): 10000 µg/mL
4 | Lysozyme: simple lysozyme, unbonded component of the complex | – | – | – | – | – | no improvement effect | no improvement effect | no improvement effect | +++ (91 to 100%) | +++ (91 to 100%) | +++ (91 to 100%) | ++ (21 to 90%) | –
